Data taken from patent US4233310A, “Antiarteriosclerotic N-(mercaptoacyl)-histidines” (Santen Pharmaceutical Co., Ltd., priority 1976, dated 1980).

Legend:
[1] = Hypolipid action in rats fed 2% cholesterol-containing diet (serum and liver lipids); format: in vivo, Wistar strain male rats; conditions: 100 mg/kg orally twice a day for one week; for Liver lipid: Cholesterol content / Liver lipid: Phospholipid content / Liver lipid: Triglyceride content / Serum lipid: Cholesterol content / Serum lipid: Phospholipid content / Serum lipid: Triglyceride content: fasted 16 hours, mean ± standard; for Liver lipid: Cholesterol % / Liver lipid: Phospholipid % / Liver lipid: Triglyceride % / Serum lipid: Cholesterol % / Serum lipid: Phospholipid % / Serum lipid: Triglyceride %: % of control (control = 100)
Procedure: (§1) Pharmacological study (Hypolipid action)
(§2) A 2% aqueous solution of N-(mercaptoacetyl)-L-histidine and N-(3-mercaptopropionyl)-L-histidine, previously neutralized to pH 7.0 with sodium hydroxide, was administered orally to Wistar strain male rats at a dose of 100 mg/kg twice a day for one week. After the final administration of the test solution, the rats were fasted for 16 hours. Cholesterol, triglyceride and phospholipid levels in serum and liver were determined. The rats were divided into two groups. One group was fed a stock diet, and the other a 2% cholesterol-containing diet.
Group fed with cholesterol containing diet

[2] = Hypolipid action in rats fed stock diet (serum and liver lipids); format: in vivo, Wistar strain male rats; conditions: 100 mg/kg orally twice a day for one week; for Liver lipid: Cholesterol content / Liver lipid: Phospholipid content / Liver lipid: Triglyceride content / Serum lipid: Cholesterol content / Serum lipid: Phospholipid content / Serum lipid: Triglyceride content: fasted 16 hours, mean ± standard; for Liver lipid: Cholesterol % / Liver lipid: Phospholipid % / Liver lipid: Triglyceride % / Serum lipid: Cholesterol % / Serum lipid: Phospholipid % / Serum lipid: Triglyceride %: % of control (control = 100)
Procedure: as §1, §2
Group fed with stock diet

[3] = Acute toxicity (LD50, intraperitoneal); conditions: rat, in vivo, ip, 5% solution pH 7.0, 7-day observation, Litchfield-Wilcoxon method
Procedure: ddy Strain male rats, 4 weeks of age, weighing 18-20 g were placed in a room of constant temperature and humidity (24°±1° C., 55+5%) and fed freely a pellet diet (CE-2, made by Clea Japan Inc.) and water for one week. Out of them, rats showing normal growth were selected for the experiment.
N-(3-mercaptopropionyl)-L-histidine was added to physiological saline, and was neutralized to pH 7.0 with 4 N sodium hydroxide a 5% solution of this solution was used as the test solution, being administered intraperitoneally to the rats.

| SMILES | Liver lipid: Cholesterol content [1] [mg/total liver weight] | Liver lipid: Phospholipid content [1] [mg/total liver weight] | Liver lipid: Triglyceride content [1] [mg/total liver weight] | Serum lipid: Cholesterol content [1] [mg/dL] | Serum lipid: Phospholipid content [1] [mg/dL] | Serum lipid: Triglyceride content [1] [mg/dL] | Liver lipid: Cholesterol % [1] [%] | Liver lipid: Phospholipid % [1] [%] | Liver lipid: Triglyceride % [1] [%] | Serum lipid: Cholesterol % [1] [%] | Serum lipid: Phospholipid % [1] [%] | Serum lipid: Triglyceride % [1] [%] | Liver lipid: Cholesterol content [2] [mg/total liver weight] | Liver lipid: Phospholipid content [2] [mg/total liver weight] | Liver lipid: Triglyceride content [2] [mg/total liver weight] | Serum lipid: Cholesterol content [2] [mg/dL] | Serum lipid: Phospholipid content [2] [mg/dL] | Serum lipid: Triglyceride content [2] [mg/dL] | Liver lipid: Cholesterol % [2] [%] | Liver lipid: Phospholipid % [2] [%] | other results |
| --- | --- | --- | --- | --- | --- | --- | --- | --- | --- | --- | --- | --- | --- | --- | --- | --- | --- | --- | --- | --- | --- |
| O=C(CCS)N[C@@H](Cc1c[nH]cn1)C(=O)O [Compound 2, N-(3-mercaptopropionyl)-L-histidine] | 60.3 ± 4.0 | 116.4 ± 4.2 | 17.1 ± 1.5 | 246.9 ± 27.8 | 173.9 ± 7.0 | 79.2 ± 4.9 | 96.0 | 96.4 | 98.3 | 81.4 | 85.5 | 69.7 | 18.9 ± 0.4 | 163.6 ± 1.7 | 30.8 ± 4.5 | 45.4 ± 0.4 | 93.4 ± 4.8 | 49.5 ± 5.5 | 85.9 | 83.8 | Liver lipid: Triglyceride % [2]: 77.6%; Serum lipid: Cholesterol % [2]: 71.4%; Serum lipid: Phospholipid % [2]: 82.4%; Serum lipid: Triglyceride % [2]: 57.5%; LD50 at 168 h [3]: 4040 mg/kg |
| O=C(CS)N[C@@H](Cc1c[nH]cn1)C(=O)O [Compound 1, N-(mercaptoacetyl)-L-histidine] | 52.4 ± 3.6 | 112.6 ± 5.8 | 17.0 ± 1.4 | 269.5 ± 4.8 | 178.6 ± 9.8 | 81.4 ± 10.2 | 83.4 | 93.2 | 97.7 | 88.7 | 87.8 | 71.6 | 19.7 ± 0.8 | 175.1 ± 7.3 | 24.4 ± 2.0 | 53.2 ± 1.9 | 95.1 ± 3.2 | 56.0 ± 5.6 | 89.5 | 89.7 | Liver lipid: Triglyceride % [2]: 61.5%; Serum lipid: Cholesterol % [2]: 83.6%; Serum lipid: Phospholipid % [2]: 83.9%; Serum lipid: Triglyceride % [2]: 65.0% |
